US20060094722A1 (Eisai Co., Ltd., priority 2002, published 2006)
Where a name gives a salt, the structure may show the parent alone.

Each molecule was assayed against T1, DPPIV obtained from swine kidney (Sus scrofa, UniProt P22411) (assay: Assay for the DPPIV-inhibiting activity). Conditions: DPPIV 10 mU/mL; Gly-Pro-p-nitroanilide 0.33 mM; absorbance 405 nm; read-out: IC50.
T1 construct: DPPIV obtained from swine kidney; from tissue; host or cells: swine kidney
T1 sequence (P22411 whole entry): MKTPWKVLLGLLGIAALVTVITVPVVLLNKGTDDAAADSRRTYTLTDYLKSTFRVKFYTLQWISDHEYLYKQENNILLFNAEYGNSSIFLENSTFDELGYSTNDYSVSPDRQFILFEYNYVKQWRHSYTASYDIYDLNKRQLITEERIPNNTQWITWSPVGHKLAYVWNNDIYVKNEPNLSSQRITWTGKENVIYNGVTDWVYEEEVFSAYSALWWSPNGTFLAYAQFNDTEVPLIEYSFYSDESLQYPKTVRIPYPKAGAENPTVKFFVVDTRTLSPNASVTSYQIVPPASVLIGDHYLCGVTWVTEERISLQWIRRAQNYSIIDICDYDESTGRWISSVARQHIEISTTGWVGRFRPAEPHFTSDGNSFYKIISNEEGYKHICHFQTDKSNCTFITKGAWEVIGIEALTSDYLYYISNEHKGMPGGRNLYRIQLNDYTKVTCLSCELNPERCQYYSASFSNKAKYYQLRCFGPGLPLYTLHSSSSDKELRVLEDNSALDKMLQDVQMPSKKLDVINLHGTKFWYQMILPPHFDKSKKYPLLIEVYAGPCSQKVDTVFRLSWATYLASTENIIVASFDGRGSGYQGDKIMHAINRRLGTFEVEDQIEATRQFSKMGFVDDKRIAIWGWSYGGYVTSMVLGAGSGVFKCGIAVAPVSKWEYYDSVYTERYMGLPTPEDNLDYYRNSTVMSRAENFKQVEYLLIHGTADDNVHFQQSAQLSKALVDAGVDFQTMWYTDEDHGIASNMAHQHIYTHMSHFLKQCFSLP
Format: biochemical
Protocol: DPPIV obtained from swine kidney was dissolved in a reaction buffer (50 mM Tris-HCl (pH 7.4)/0.1% BSA) at a fmal concentration of 10 mU/mL. A 110 μL aliquot of this enzyme solution was added to the reaction system, and then 15 μL of an agent was added. The reaction solution was incubated at room temperature for 20 minutes. 25 μL of a solution containing 2 mM Gly-Pro-p-nitroanilide was added to the reaction solution (at the final concentration of 0.33 mM) to start the enzyme reaction. The reaction time was 20 minutes. 25 μL of 1N phosphate solution was added to stop the reaction. […] The degree of inhibition to the enzyme reaction was determined, and IC50 was computed based on the absorbance.
In the case of `CC#CCn1c(N2CCNCC2)nc2nc(OC(C(=O)OC)c3ccccc3)n(C)c(=O)c21` (stereo not shown) [Example 4, trifluoroacetate], the IC50 is reported as 211 nM.
For `CC#CCn1c(N2CCNCC2)nc2nc(OC(C)C(=O)OCC)n(C)c(=O)c21` (stereo not shown) [Example 9, Ethyl 2-[7-(2-butynyl)-1-methyl-6-oxo-8-(piperazin-1-yl)-6,7-dihydro-1H-purin-2-yloxy]propionate], the IC50 was 141 nM.
In the case of `CC#CCn1c(N2CCNCC2)nc2nc(OCC)n(C)c(=O)c21` [Example 12, 7-(2-Butynyl)-2-ethoxy-1-methyl-8-(piperazin-1-yl)-1,7-dihydropurin-6-one], the IC50 is reported as 183 nM.
With `CC#CCn1c(N2CCNCC2)nc2nc(OCC(=O)OCC)n(C)c(=O)c21` [Example 13, Ethyl[7-(2-butynyl)-1-methyl-6-oxo-8-(piperazin-1-yl)-6,7-dihydro-1H-purin-2-yloxy]acetate] the IC50 was 125 nM.
Molecule `CC#CCn1c(N2CCNCC2)nc2nc(OC3(C(=O)OCC)CC3)n(C)c(=O)c21` [Example 16] has an IC50 of 272 nM.
Work on `CC#CCn1c(N2CCNCC2)nc2nc(SCC(=O)O)n(C)c(=O)c21` [Example 79, [7-(2-Butynyl)-1-methyl-6-oxo-8-(piperazin-1-yl)-6,7-dihydro-1H-purin-2-ylsulfanyl]acetic acid trifluoroacetate] yielded an IC50 of 35.7 nM.
In the case of `CC#CCn1c(N2CCNCC2)nc2nc(C(N)=O)n(C)c(=O)c21` [Example 83, 7-(2-Butynyl)-1-methyl-6-oxo-8-(piperazin-1-yl)-6,7-dihydro-1H-purine-2-carboxamide], the IC50 is reported as 27.4 nM.
`CC#CCn1c(N2CCNCC2)nc2cnn(C)c(=O)c21` [Example 115, 3-(2-Butynyl)-5-methyl-2-(piperazin-1-yl)-3,5-dihydroimidazo[4,5-d]pyridazin-4-one trifluoroacetate] showed an IC50 of 185 nM.
In the case of `CC#CCn1c(N2CCNCC2)nc2nc(SCCC)n(C)c(=O)c21` [Example 129, 7-(2-Butynyl)-1-methyl-8-(piperazin-1-yl)-2-propylsulfanyl-1,7-dihydropurin-6-one trifluoroacetate], the IC50 is reported as 115 nM.
For `CC#CCn1c(N2CCNCC2)nc2nc(Oc3ccccc3C(N)=O)n(Cc3ccc(C#N)cc3)c(=O)c21` [Example 235, 2-[7-(2-Butynyl)-1-(4-cyanobenzyl-6-oxo-8-(piperazin-1-yl)-6,7-dihydro-1H-purin-2-yloxy]benzamide trifluoroacetate], the IC50 was 1.44 nM.
Work on `CC#CCn1c(N2CCNCC2)nc2ccn(CC(=O)c3ccccc3)c(=O)c21` [Example 341, 3-(2-Butynyl)-5-(2-oxo-2-phenylethyl)-2-(piperazin-1-yl)-3,5-dihydroimidazo[4,5-c]pyridin-4-one trifluoroacetate] yielded an IC50 of 7.32 nM.
`CC#CCn1c(N2CCNCC2)nc2c1c(=O)n(CC(=O)OC)c(=O)n2C` [Example 355, Methyl[7-(2-butynyl)-3-methyl-2,6-dioxo-8-(piperazin-1-yl)-2,3,6,7-tetrahydropurin-1-yl]acetate trifluoroacetate] showed an IC50 of 147 nM.

Same assay, conditions: IC50 (nM), DPPIV 10 mU/mL; Gly-Pro-p-nitroanilide 0.33 mM; absorbance 405 nm
`O=c1c2c(cnn1CCc1ccccc1)nc(N1CCNCC1)n2Cc1ccccc1` [Example 311, 3-Benzyl-5-(2-phenylethyl)-2-(piperazin-1-yl)-3,5-dihydroimidazo[4,5-d]pyridazin-4-one trifluoroacetate] was tested, and the IC50 was 77.5 nM.
Molecule `CC#CCn1c(N2CCNCC2)nc2c1c(=O)[nH]c(=O)n2C` [Example 354, 7-(2-Butynyl)-3-methyl-8-(piperazin-1-yl)-3,7-dihydropurine-2,6-dione] has an IC50 of 285 nM.
With `C#CCn1c(=O)c2c(nc(N3CCNCC3)n2CC#CC)n(C)c1=O` [Example 357, 7-(2-Butynyl)-3-methyl-8-(piperazin-1-yl)-1-(2-propynyl)-3,7-dihydropurine-2,6-dione trifluoroacetate] the IC50 was 323 nM.
Molecule `CC#CCn1c(=O)c2c(nc(N3CCNCC3)n2CC#CC)n(C)c1=O` [Example 358, 1,7-bis(2-Butynyl)-3-methyl-8-(piperazin-1-yl)-3,7-dihydropurine-2,6-dione trifluoroacetate] has an IC50 of 357 nM.
